The test deals with T1, Human thrombin (Homo sapiens, UniProt P00734).
T1 construct: purchased Haematologic Technologies Inc
Nature of the test: Thrombin protease activity inhibition, chromogenic substrate S-2238. Type of test: biochemical. To be noted: 3 nM thrombin, 125 μM S-2238, 10 min pre-incubation, RT. The procedure, abridged:
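Thrombin at 3 nM final in 0.05 M Tris pH 7.4, 0.015 M NaCl, 0.01% PEG-8000, at room temperature; compounds as ten-point three-fold dilutions.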
A word on the IC50: it is the concentration that gives 50% inhibition. Compound `C=CCOC(=O)N1CCC(c2cc(NCc3ccc(Cl)s3)[nH]n2)CC1` [Entry 266, prop-2-en-1-yl 4-(5-[(5-chlorothiophen-2-yl)methyl]amino-1H-pyrazol-3-yl)piperidine-1-carboxylate] displayed a concentration for half-maximal inhibition (IC50) of over 100000 nM.
Turning to `CC1(c2cc(NCc3ccc(Cl)s3)n(C(=O)c3ccsc3)n2)CCNCC1` [Entry 180, N-[(5-chlorothiophen-2-yl)methyl]-3-(4-methylpiperidin-4-yl)-1-(thiophene-3-carbonyl)-1H-pyrazol-5-amine], the IC50 lay within 1000 to 10000 nM.
`Clc1ccc(CNc2cc(C3CCN(Cc4ccccn4)CC3)n[nH]2)s1` [Entry 210, N-[(5-chlorothiophen-2-yl)methyl]-3-[1-(pyridin-2-ylmethyl)piperidin-4-yl]-1H-pyrazol-5-amine] registered a half-inhibitory concentration (IC50) of 1000 to 10000 nM.
As to `O=C(N1CCOCC1)N1CCC(c2cc(NCc3ccc(Cl)s3)n(C(=O)c3cscn3)n2)C1` (centres unmarked) [Entry 205, N-[(5-chlorothiophen-2-yl)methyl]-3-[1-(morpholine-4-carbonyl)pyrrolidin-3-yl]-1-(1,3-thiazole-4-carbonyl)-1H-pyrazol-5-amine], the concentration for half-maximal inhibition (IC50) was under 100 nM.
`COc1ccccc1C(=O)n1nc(C2(C)CCCNC2)cc1NCc1ccc(Cl)s1` (centres unmarked) [Entry 153, N-[(5-chlorothiophen-2-yl)methyl]-1-(2-methoxybenzoyl)-3-(3-methylpiperidin-3-yl)-1H-pyrazol-5-amine] gave a half-inhibitory concentration (IC50) of 1000 to 10000 nM.
With `CC(C)(C)OC(=O)N1CCCC(c2cc(NCc3ccc(Cl)s3)n(C(=O)C(C)(C)CO)n2)C1` (centres unmarked) [Entry 283, tert-butyl 3-(5-[(5-chlorothiophen-2-yl)methyl]amino-1-(3-hydroxy-2,2-dimethylpropanoyl)-1H-pyrazol-3-yl)piperidine-1-carboxylate], the half-maximal inhibitory concentration (IC50) was under 100 nM.
For the compound `CS(=O)(=O)N1CC(c2cc(NCc3ccc(Cl)s3)[nH]n2)C1` [Entry 172, N-[(5-chlorothiophen-2-yl)methyl]-3-(1-methanesulfonylazetidin-3-yl)-1H-pyrazol-5-amine], the IC50 is over 100000 nM.
Consider `C=CCOC(=O)N1CC(c2cc(NCc3ccc(Cl)s3)[nH]n2)C1` [Entry 258, prop-2-en-1-yl 3-(5-[(5-chlorothiophen-2-yl)methyl]amino-1H-pyrazol-3-yl)azetidine-1-carboxylate], for which the concentration for half-maximal inhibition (IC50) was 10000 to 100000 nM.
The value for `C=CCOC(=O)N1CCCC1c1cc(NCc2ccc(Cl)s2)n(C(=O)C(C)(C)C)n1` (centres unmarked) [Entry 247, prop-2-en-1-yl 2-(5-[(5-chlorothiophen-2-yl)methyl]amino-1-(2,2-dimethylpropanoyl)-1H-pyrazol-3-yl)pyrrolidine-1-carboxylate] was under 100 nM; that for `Clc1ccc(CNc2cc(C3CCN(Cc4cnn[nH]4)CC3)n[nH]2)s1` [Entry 196, N-[(5-chlorothiophen-2-yl)methyl]-3-[1-(1H-1,2,3-triazol-5-ylmethyl)piperidin-4-yl]-1H-pyrazol-5-amine] was over 100000 nM; that for `CC(=O)N1CCC(c2cc(NCc3ccc(Cl)s3)n(C(=O)C(C)(C)C)n2)CC1` [Entry 94, 1-[3-(1-acetylpiperidin-4-yl)-5-[(5-chlorothiophen-2-yl)methyl]amino-1H-pyrazol-1-yl]-2,2-dimethylpropan-1-one] was under 100 nM.
For `C=CCOC(=O)N1CCC(c2n[nH]c(NCc3ccc(Cl)s3)c2C#N)CC1` [Entry 268, prop-2-en-1-yl 4-(5-[(5-chlorothiophen-2-yl)methyl]amino-4-cyano-1H-pyrazol-3-yl)piperidine-1-carboxylate], the 50% inhibitory concentration (IC50) lay in the range of 1000 to 10000 nM.
The value for `O=S(=O)(c1ccccc1)N1CCC(c2cc(NCc3ccc(Cl)s3)[nH]n2)CC1` [Entry 130, 3-[1-(benzenesulfonyl)piperidin-4-yl]-N-[(5-chlorothiophen-2-yl)methyl]-1H-pyrazol-5-amine] was 1000 to 10000 nM; that for `Cc1c(C2CCN(C(=O)OC(C)(C)C)CC2)nn(C(=O)C(C)(C)C)c1NCc1ccc(Cl)s1` [Entry 293, tert-butyl 4-(5-[(5-chlorothiophen-2-yl)methyl]amino-1-(2,2-dimethylpropanoyl)-4-methyl-1H-pyrazol-3-yl)piperidine-1-carboxylate] was 100 to 1000 nM; that for `C=CCOC(=O)N1CCCC(c2cc(NCc3ccc(Cl)s3)n(C(=O)C(C)(C)C)n2)CC1` (centres unmarked) [Entry 261, prop-2-en-1-yl 4-(5-[(5-chlorothiophen-2-yl)methyl]amino-1-(2,2-dimethylpropanoyl)-1H-pyrazol-3-yl)azepane-1-carboxylate] was under 100 nM.
In the case of `CC(C)(C)OC(=O)N1CCC(C)(c2cc(NCc3ccc(Cl)s3)n(C(=O)c3ccsc3)n2)CC1` [Entry 300, tert-butyl 4-(5-[(5-chlorothiophen-2-yl)methyl]amino-1-(thiophene-3-carbonyl)-1H-pyrazol-3-yl)-4-methylpiperidine-1-carboxylate] it was under 100 nM; in that of `C=CCOC(=O)N1CCC(c2nn(C(=O)C(C)(C)C)c(NCc3ccc(Cl)s3)c2F)CC1` [Entry 263, prop-2-en-1-yl 4-(5-[(5-chlorothiophen-2-yl)methyl]amino-1-(2,2-dimethylpropanoyl)-4-fluoro-1H-pyrazol-3-yl)piperidine-1-carboxylate], under 100 nM.
In the case of `C=CCOC(=O)N1CCC(c2cc(NCc3ccc(Cl)s3)n(C(=O)C(C)(C)C)n2)CC1` [Entry 262, prop-2-en-1-yl 4-(5-[(5-chlorothiophen-2-yl)methyl]amino-1-(2,2-dimethylpropanoyl)-1H-pyrazol-3-yl)piperidine-1-carboxylate] it was under 100 nM; in that of `CC(C)(C)C(=O)n1nc(C2(C)CCCNC2=O)cc1NCc1ccc(Cl)s1` (centres unmarked) [Entry 115, 3-(5-[(5-chlorothiophen-2-yl)methyl]amino-1-(2,2-dimethylpropanoyl)-1H-pyrazol-3-yl)-3-methylpiperidin-2-one], 100 to 1000 nM; in that of `C=CCOC(=O)N1C2CCC1CC(c1cc(NCc3ccc(Cl)s3)n(C(=O)C(C)(C)C)n1)C2` (centres unmarked) [Entry 254, prop-2-en-1-yl 3-(5-[(5-chlorothiophen-2-yl)methyl]amino-1-(2,2-dimethylpropanoyl)-1H-pyrazol-3-yl)-8-azabicyclo[3.2.1]octane-8-carboxylate], under 100 nM.
`CC(C)(C)OC(=O)N1CCCC(c2cc(NCc3ccc(Cl)s3)n(C(=O)C(C)(C)C)n2)C1` (centres unmarked) [Entry 279, tert-butyl 3-(5-[(5-chlorothiophen-2-yl)methyl]amino-1-(2,2-dimethylpropanoyl)-1H-pyrazol-3-yl)piperidine-1-carboxylate] yielded an IC50 of under 100 nM.
The value for `CN(C)C(=O)N1CCC(c2cc(NCc3ccc(Cl)s3)n(C(=O)C(C)(C)CO)n2)CC1` [Entry 134, 4-(5-[(5-chlorothiophen-2-yl)methyl]amino-1-(3-hydroxy-2,2-dimethylpropanoyl)-1H-pyrazol-3-yl)-N,N-dimethylpiperidine-1-carboxamide] was under 100 nM.
`COCC(C)(C)C(=O)n1nc(C2CCCN(C(=O)OC(C)(C)C)C2)cc1NCc1ccc(Cl)s1` (centres unmarked) [Entry 285, tert-butyl 3-(5-[(5-chlorothiophen-2-yl)methyl]amino-1-(3-methoxy-2,2-dimethylpropanoyl)-1H-pyrazol-3-yl)piperidine-1-carboxylate] came in with a half-maximal inhibitory concentration (IC50) of under 100 nM.
In the case of `Cc1c(C2CCN(C(=O)c3cscn3)CC2)n[nH]c1NCc1ccc(Cl)s1` [Entry 236, N-[(5-chlorothiophen-2-yl)methyl]-4-methyl-3-[1-(1,3-thiazole-4-carbonyl)piperidin-4-yl]-1H-pyrazol-5-amine] it was over 100000 nM; in that of `CC(C)(C)C(=O)n1nc(C2CCN(C(=O)N3CCOCC3)CC2)c(C#N)c1NCc1ccc(Cl)s1` [Entry 140, 5-[(5-chlorothiophen-2-yl)methyl]amino-1-(2,2-dimethylpropanoyl)-3-[1-(morpholine-4-carbonyl)piperidin-4-yl]-1H-pyrazole-4-carbonitrile], under 100 nM.
As to `COc1ccccc1C(=O)n1nc(C2CCCO2)cc1NCc1ccc(Cl)s1` (centres unmarked) [Entry 156, N-[(5-chlorothiophen-2-yl)methyl]-1-(2-methoxybenzoyl)-3-(oxolan-2-yl)-1H-pyrazol-5-amine], the IC50 is under 100 nM.
`CC(C)(C)OC(=O)N1CCC(C)(c2cc(NCc3ccc(Cl)s3)n(C(=O)C3(C)CCOCC3)n2)CC1` [Entry 299, tert-butyl 4-(5-[(5-chlorothiophen-2-yl)methyl]amino-1-(4-methyloxane-4-carbonyl)-1H-pyrazol-3-yl)-4-methylpiperidine-1-carboxylate] returned a concentration for half-maximal inhibition (IC50) of under 100 nM.
`Clc1ccc(CNc2cc(C3CCN(Cc4ncno4)CC3)n[nH]2)s1` [Entry 192, N-[(5-chlorothiophen-2-yl)methyl]-3-[1-(1,2,4-oxadiazol-5-ylmethyl)piperidin-4-yl]-1H-pyrazol-5-amine] returned an IC50 of over 100000 nM.
Compound `COc1ccccc1C(=O)n1nc(C2(C)CCCN2C(=O)OC(C)(C)C)cc1NCc1ccc(Cl)s1` (centres unmarked) [Entry 272, tert-butyl 2-(5-[(5-chlorothiophen-2-yl)methyl]amino-1-(2-methoxybenzoyl)-1H-pyrazol-3-yl)-2-methylpyrrolidine-1-carboxylate] registered a 50% inhibitory concentration (IC50) of 1000 to 10000 nM.
`Cc1c(C2CCNCC2)nn(C(=O)C(C)(C)C)c1NCc1ccc(Cl)s1` [Entry 89, 1-(5-[(5-chlorothiophen-2-yl)methyl]amino-4-methyl-3-(piperidin-4-yl)-1H-pyrazol-1-yl)-2,2-dimethylpropan-1-one; formic acid] displayed an IC50 of 1000 to 10000 nM.
For `O=C(c1cccc2c1OCCO2)n1nc(C2CNC2)cc1NCc1ccc(Cl)s1` [Entry 126, 3-(azetidin-3-yl)-N-[(5-chlorothiophen-2-yl)methyl]-1-(2,3-dihydro-1,4-benzodioxine-5-carbonyl)-1H-pyrazol-5-amine; trifluoroacetic acid], the IC50 lay within 1000 to 10000 nM.
Regarding `Cc1c(C2CCN(C(=O)OC(C)(C)C)CC2)n[nH]c1NCc1ccc(Cl)s1` [Entry 303, tert-butyl 4-(5-[(5-chlorothiophen-2-yl)methyl]amino-4-methyl-1H-pyrazol-3-yl)piperidine-1-carboxylate], the IC50 is over 100000 nM.

The values above are taken from patent publication US10532995B2, “Substituted pyrazole compounds as serine protease inhibitors” (VERSEON CORPORATION, priority 2015, dated 2020).
